Test results published in PMC4556830, “The Effect of MGCD0103 on CYP450 Isoforms Activity of Rats by Cocktail Method” (BioMed Research International, 2015).

Test: Pharmacokinetics of six cocktail probe drugs in rat plasma (UPLC-MS/MS) after 7-day MGCD0103 or saline
Settings: for Cmax / half-life: Sprague-Dawley, rat, po; for Cmax: C max; for difference for AUC, t 1/2 between high dosage group and control group: high dosage MGCD0103 group vs control, p > 0.05
Procedure: The compounds were analyzed by a UPLC-MS/MS with ACQUITY I-Class UPLC and a XEVO TQD triple quadrupole mass spectrometer that was equipped with an electrospray ionization (ESI) interface (Waters Corp., Milford, MA, USA). The UPLC system included a Sample Manager with Flow-Through Needle (SM-FTN) and a Binary Solvent Manager (BSM). Data acquisition and instrument control were performed on the MassLynx 4.1 software (Waters Corp., Milford, MA, USA).
The initial mobile phase consisted of 0.1% formic acid and acetonitrile with gradient elution at a flow rate of 0.4 mL/min and an injection volume of 2 μL. […] The total run time of the analysis was 3 min.
The mass spectrometric detection was performed in a positive mode. Nitrogen was used as the cone gas (50 L/h) and desolvation gas (1000 L/h). The mass conditions were set as follows: source temperature 150°C, capillary voltage 2.5 kV, and desolvation temperature 500°C.
Forty rats (220 ± 20 g) were randomly divided into four different dosages of MGCD0103 groups (Low group, Medium group, High group, and control group with 10 rats in each group). MGCD0103 was dissolved in corn oil as suspension at three different concentrations (20, 40, and 80 mg/mL). Three different MGCD0103 groups (Low group, Medium group, and High group) were respectively given MGCD0103 20, 40, and 80 mg/kg one time by intragastric administration at every morning and last for 7 days. Control group were given saline by same administration method.
100 μL of plasma was obtained from blood sample after centrifugation at 4000 g for 10 min. In a 1.5 mL centrifuge tube, 200 μL of acetonitrile (containing 50 ng/mL IS) was added into 100 μL of collected plasma sample. […] Then supernatant (2 μL) was injected into the UPLC-MS/MS system for analysis.
Concentration of plasma probe drugs versus time was analyzed by Version 3.0 Data Analysis System (Wenzhou Medical University, China). The main pharmacokinetic parameters of the MGCD0103 group and control group were analyzed by SPSS l8.0 statistical software.

[1] = Control group: saline i.g. 7 days (no MGCD0103), then probe 10 mg/kg (tolbutamide 1 mg/kg) i.g., rat plasma, mean ± SD, n = 10
[2] = High group: MGCD0103 80 mg/kg i.g. 7 days, then probe 10 mg/kg (tolbutamide 1 mg/kg) i.g., rat plasma, mean ± SD, n = 10
[3] = Low group: MGCD0103 20 mg/kg i.g. 7 days, then probe 10 mg/kg (tolbutamide 1 mg/kg) i.g., rat plasma, mean ± SD, n = 10
[4] = Medium group: MGCD0103 40 mg/kg i.g. 7 days, then probe 10 mg/kg (tolbutamide 1 mg/kg) i.g., rat plasma, mean ± SD, n = 10

| AUC(0–t) [1] [ng/mL∗h] | AUC(0–∞) [1] [ng/mL∗h] | AUC(0–t) [2] [ng/mL∗h] | AUC(0–∞) [2] [ng/mL∗h] | AUC(0–t) [3] [ng/mL∗h] | AUC(0–∞) [3] [ng/mL∗h] | AUC(0–t) [4] [ng/mL∗h] | AUC(0–∞) [4] [ng/mL∗h] | Cmax (in vivo, 10 mg/kg) [ng/mL] | half-life (in vivo, 10 mg/kg, t 1/2) [min] | difference for AUC, t 1/2 between high dosage group and control group | half-life (in vivo, t 1/2) [min] | CL [1] [mL/min/kg] | CL [2] [mL/min/kg] | CL [3] [mL/min/kg] | CL [4] [mL/min/kg] | half-life (plasma, 10 mg/kg, t 1/2, Control group: saline i.g. 7 days (no MGCD0103), then probe 10 mg/kg (tolbutamide 1 mg/kg) i.g., rat plasma, mean ± SD, n = 10) [min] | SMILES |
| --- | --- | --- | --- | --- | --- | --- | --- | --- | --- | --- | --- | --- | --- | --- | --- | --- | --- |
| 144.8 ± 94.1 | 146.7 ± 95.1 | 218.2 ± 460.8 | 235.2 ± 502.8 | 282.5 ± 403.2 | 324.2 ± 506.3 | 120.4 ± 45.1 | 122.3 ± 45.2 | 157 ± 179 | 48 ± 24 | no significant difference |  |  |  |  |  |  | CC(NC(C)(C)C)C(=O)c1cccc(Cl)c1 (centres unmarked) [Bupropion] |
| 709.2 ± 255.8 | 724.2 ± 255.8 | 1031.8 ± 1261.2 | 1046.4 ± 1258.4 | 698.1 ± 348.6 | 703.8 ± 351.6 | 836.1 ± 499.8 | 843.7 ± 498.4 |  |  | no significant difference | 48 ± 6 |  |  |  |  |  | COCCc1ccc(OCC(O)CNC(C)C)cc1 (centres unmarked) [Metoprolol] |
| 503.8 ± 199.4 | 528.0 ± 190.0 | 676.8 ± 1111.6 | 731.8 ± 1098.8 | 700.1 ± 910.2 | 704.9 ± 909.5 | 526.1 ± 251.2 | 539.1 ± 252.5 | 556 ± 646 |  | no significant difference |  | 353 ± 127 | 530 ± 317 | 485 ± 277 | 372 ± 167 | 84 ± 60 | COc1ccc2[nH]c([S+]([O-])Cc3ncc(C)c(OC)c3C)nc2c1 (centres unmarked) [Omeprazole] |
| 3831.2 ± 2840.9 | 3833.6 ± 2839.3 | 2869.8 ± 3189.9 | 2871.9 ± 3189.0 | 2973.6 ± 1807.0 | 2975.9 ± 1806.6 | 2910.1 ± 1758.5 | 2918.2 ± 1751.4 | 2880 ± 1630 | 36 ± 24 | no significant difference |  |  |  |  |  |  | CCOc1ccc(NC(C)=O)cc1 [Phenacetin] |
